# Results from patent US7875647B2, “Heteroaryl-pyrazole derivatives as cannabinoid CB1 receptor antagonists” (Green Cross Corporation, priority 2006, dated 2011).
# Target: T1, Cannabinoid-1 receptor (CB1R) (Rattus norvegicus, UniProt P20272)
# T1 construct: The tissue obtained from the brain of SD rats was homogenized; from tissue; host or cells: brain of SD rats (membrane pellet of the homogenate)
# Experiment: Cannabinoid-1 receptor (CB1R) binding affinity assay ([3H]CP-55940, rat CB-1 receptor binding protocol)
# Details: brain tissue of SD rats, [3H]CP-55940, 30° C. 60 min; read-out: IC50
# T1 sequence (P20272 whole entry): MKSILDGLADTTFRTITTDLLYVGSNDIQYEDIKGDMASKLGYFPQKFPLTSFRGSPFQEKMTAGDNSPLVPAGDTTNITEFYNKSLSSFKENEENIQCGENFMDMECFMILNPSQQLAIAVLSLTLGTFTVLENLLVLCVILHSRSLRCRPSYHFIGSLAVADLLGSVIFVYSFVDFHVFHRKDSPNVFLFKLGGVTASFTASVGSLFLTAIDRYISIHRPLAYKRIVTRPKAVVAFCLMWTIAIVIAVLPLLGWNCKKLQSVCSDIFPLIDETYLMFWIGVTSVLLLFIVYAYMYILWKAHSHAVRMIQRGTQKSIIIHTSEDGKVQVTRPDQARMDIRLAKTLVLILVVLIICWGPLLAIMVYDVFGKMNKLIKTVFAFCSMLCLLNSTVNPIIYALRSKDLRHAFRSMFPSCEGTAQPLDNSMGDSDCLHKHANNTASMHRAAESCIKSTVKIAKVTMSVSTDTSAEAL
row,Compound,IC50 [nM]
1,"Cc1c(-c2nnc(C3CCC3)s2)nn(-c2ccccc2Cl)c1-c1ccc(Cl)cc1 [Example 409, 2-(1-(2-chlorophenyl)-5-(4-chlorophenyl)-4-methyl-1H-pyrazol-3-yl)-5-cyclobutyl-1,3,4-thiadiazole]",58.1
2,"CCC(C)c1nnc(-c2nn(-c3ccc(Cl)cc3)c(-c3ccc(Br)cc3)c2C)s1 (stereo not drawn) [Example 418, 2-(5-(4-bromophenyl)-1-(4-chlorophenyl)-4-methyl-1H-pyrazol-3-yl)-5-sec-butyl-1,3,4-thiadiazole]",465
3,"CCCCCc1nnc(-c2nn(-c3ccc(Cl)cc3Cl)c(-c3ccc(Cl)cc3)c2C)s1 [Example 361, 2-(5-(4-Chlorophenyl)-1-(2,4-dichlorophenyl)-4-methyl-1H-pyrazol-3-yl)-5-pentyl-1,3,4-thiadiazole]",69.2
4,"Cc1c(-c2nnc(C3(C)CC3)s2)nn(-c2ccc(Cl)cc2Cl)c1-c1ccc(Cl)cc1 [Example 469, 2-(5-(4-chlorophenyl)-1-(2,4-dichlorophenyl)-4-methyl-1H-pyrazol-3-yl)-5-(1-methylcyclopropyl)-1,3,4-thiadiazole]",36.3
5,"5-(5-(4-Chlorophenyl)-1-(2,4-dichlorophenyl)-4-methyl-1H-pyrazol-3-yl)-1-cycloheptyl-1H-tetrazole [Example 601]",26.7
6,"Cc1c(-c2nnc(C(C)(C)Oc3ccccn3)o2)nn(-c2ccc(Cl)cc2Cl)c1-c1ccc(Cl)cc1 [Example 80, 2-(5-(4-chlorophenyl)-1-(2,4-dichlorophenyl)-4-methyl-1H-pyrazol-3-yl)-5-(2-(pyridin-2-yloxy)propan-2-yl)-1,3,4-oxadiazole]",36.1
7,"CC(C)(C)c1nnc(-c2nn(-c3ccc(Cl)cc3Cl)c(-c3ccc(Cl)cc3)c2C=O)o1 [Example 202, 3-(5-tert-butyl-1,3,4-oxadiazol-2-yl)-5-(4-chlorophenyl)-1-(2,4-dichlorophenyl)-1H-pyrazole-4-carbaldehyde]",36.2
8,"CCC(C)(C)c1nnc(-c2nn(-c3ccc(Cl)cc3)c(-c3ccc(Cl)cc3)c2C)s1 [Example 448, 2-(1,5-bis(4-chlorophenyl)-4-methyl-1H-pyrazol-3-yl)-5-tert-pentyl-1,3,4-thiadiazole]",199
9,"Cc1c(-c2nc(C3CC3)n(C)n2)nn(-c2ccc(Cl)cc2Cl)c1-c1ccc(Cl)cc1 [Example 628, 3-(5-(4-chlorophenyl)-1-(2,4-dichlorophenyl)-4-methyl-1H-pyrazol-3-yl)-5-cyclopropyl-1-methyl-1H-1,2,4-triazole]",904
10,"Cc1c(-c2nnc(CC3CC3)s2)nn(-c2ccc(Cl)cc2Cl)c1-c1ccc(Cl)cc1 [Example 370, 2-(5-(4-Chlorophenyl)-1-(2,4-dichlorophenyl)-4-methyl-1H-pyrazol-3-yl)-5-(cyclopropylmethyl)-1,3,4-thiadiazole]",67.7
11,"Cc1c(-c2nnc(NC3CCCCC3)s2)nn(-c2ccc(Cl)cc2Cl)c1-c1ccc(Cl)cc1 [Example 382, 5-(5-(4-chlorophenyl)-1-(2,4-dichlorophenyl)-4-methyl-1H-pyrazol-3-yl)-N-cyclohexyl-1,3,4-thiadiazol-2-amine]",60.3
12,"CCc1c(-c2nnc(C3CCCCC3)s2)nn(-c2ccc(Cl)cc2Cl)c1-c1ccc(Br)cc1 [Example 374, 2-(5-(4-Bromophenyl)-1-(2,4-dichlorophenyl)-4-ethyl-1H-pyrazol-3-yl)-5-cyclohexyl-1,3,4-thiadiazole]",30.5
13,"Cc1c(-c2nnc(C(C)(C)C)s2)nn(-c2ccc(Cl)cc2Cl)c1-c1ccccc1 [Example 421, 2-tert-butyl-5-(1-(2,4-dichlorophenyl)-4-methyl-5-phenyl-1H-pyrazol-3-yl)-1,3,4-thiadiazole]",160
14,"Cc1c(-c2nnc(CC3CCCC3)s2)nn(-c2ccc(Cl)cc2Cl)c1-c1ccc(Cl)cc1 [Example 357, 2-(5-(4-Chlorophenyl)-1-(2,4-dichlorophenyl)-4-methyl-1H-pyrazol-3-yl)-5-(cyclopentylmethyl)-1,3,4-thiadiazole]",30.9

# Stronger by IC50, values ahead:
row,IC50 [nM],Compound
1,21.5,"Cc1c(-c2nnc(C(C)C)s2)nn(-c2ccc(Cl)cc2Cl)c1-c1ccc(Cl)cc1 [Example 353, 2-(5-(4-chlorophenyl)-1-(2,4-dichlorophenyl)-4-methyl-1H-pyrazol-3-yl)-5-isopropyl-1,3,4-thiadiazole]"
2,19.1,"Cc1c(-c2nnc(C(C)(C)C3CCCC3)o2)nn(-c2ccc(Cl)cc2Cl)c1-c1ccc(Cl)cc1 [Example 63, 2-(5-(4-chlorophenyl)-1-(2,4-dichlorophenyl)-4-methyl-1H-pyrazol-3-yl)-5-(2-cyclopentylpropan-2-yl)-1,3,4-oxadiazole]"
3,3.41,"Clc1ccc(-c2c(Cn3cncn3)c(-c3nnc(C4(c5ccc(Cl)cc5)CCC4)o3)nn2-c2ccc(Cl)cc2Cl)cc1 [Example 322, 2-(4-((1H-1,2,4-triazol-1-yl)methyl)-5-(4-chlorophenyl)-1-(2,4-dichlorophenyl)-1H-pyrazol-3-yl)-5-(1-(4-chlorophenyl)cyclobutyl)-1,3,4-oxadiazole]"
4,11.7,"CCC(C)(C)c1nnc(-c2nn(-c3ccccc3Cl)c(-c3ccc(Cl)cc3)c2C)s1 [Example 410, 2-(1-(2-chlorophenyl)-5-(4-chlorophenyl)-4-methyl-1H-pyrazol-3-yl)-5-tert-pentyl-1,3,4-thiadiazole]"
5,10.6,"C#Cc1c(-c2nnc(C(C)(C)C)o2)nn(-c2ccc(Cl)cc2Cl)c1-c1ccc(Cl)cc1 [Example 260, 2-tert-butyl-5-(5-(4-chlorophenyl)-1-(2,4-dichlorophenyl)-4-ethynyl-1H-pyrazol-3-yl)-1,3,4-oxadiazole]"
6,3.95,"CCc1c(-c2nnc(C3(c4ccc(Cl)cc4)CC3)s2)nn(-c2ccc(Cl)cc2Cl)c1-c1ccc(Cl)cc1 [Example 463, 2-(5-(4-chlorophenyl)-1-(2,4-dichlorophenyl)-4-ethyl-1H-pyrazol-3-yl)-5-(1-(4-chlorophenyl)cyclopropyl)-1,3,4-thiadiazole]"
7,12.7,"Cc1c(-c2nnc(C3CC4CCC3C4)o2)nn(-c2ccc(Cl)cc2Cl)c1-c1ccc(Cl)cc1 (stereo not drawn) [Example 52, 2-(bicyclo[2.2.1]heptan-2-yl)-5-(5-(4-chlorophenyl)-1-(2,4-dichlorophenyl)-4-methyl-1H-pyrazol-3-yl)-1,3,4-oxadiazole]"
8,3.37,"CC(C)(C)c1nnc(-c2nn(-c3ccc(Cl)cc3Cl)c(-c3ccc(Cl)cc3)c2Cn2cnnn2)o1 [Example 300, 2-(4-((1H-tetrazol-1-yl)methyl)-5-(4-chlorophenyl)-1-(2,4-dichlorophenyl)-1H-pyrazol-3-yl)-5-tert-butyl-1,3,4-oxadiazole]"
9,7.4,"Cc1c(-c2nnc(C3(c4ccc(Cl)cc4)CC3)o2)nn(-c2ccccc2Cl)c1-c1ccc(Cl)cc1 [Example 112, 2-(1-(2-chlorophenyl)-5-(4-chlorophenyl)-4-methyl-1H-pyrazol-3-yl)-5-(1-(4-chlorophenyl)cyclopropyl)-1,3,4-oxadiazole]"
10,7.01,"CCCCC(C)c1nnc(-c2nn(-c3ccc(Cl)cc3Cl)c(-c3ccc(Br)cc3)c2CC)s1 (stereo not drawn) [Example 388, 2-(5-(4-bromophenyl)-1-(2,4-dichlorophenyl)-4-ethyl-1H-pyrazol-3-yl)-5-(hexan-2-yl)-1,3,4-thiadiazole]"
11,5.47,"CCc1c(-c2nnc(C3(c4ccc(Cl)cc4)CC3)o2)nn(-c2ccc(Cl)cc2Cl)c1-c1ccc(Cl)cc1 [Example 133, 2-(5-(4-chlorophenyl)-1-(2,4-dichlorophenyl)-4-ethyl-1H-pyrazol-3-yl)-5-(1-(4-chlorophenyl)cyclopropyl)-1,3,4-oxadiazole]"
12,5.29,"Clc1ccc(-c2c(Cn3cncn3)c(-c3nnc(C4(c5ccccc5)CCCC4)o3)nn2-c2ccc(Cl)cc2Cl)cc1 [Example 323, 2-(4-((1H-1,2,4-triazol-1-yl)methyl)-5-(4-chlorophenyl)-1-(2,4-dichlorophenyl)-1H-pyrazol-3-yl)-5-(1-phenylcyclopentyl)-1,3,4-oxadiazole]"
13,19.8,"CCc1c(-c2nnc(C3(CC)CC3)s2)nn(-c2ccc(Cl)cc2Cl)c1-c1ccc(Br)cc1 [Example 490, 2-(5-(4-bromophenyl)-1-(2,4-dichlorophenyl)-4-ethyl-1H-pyrazol-3-yl)-5-(1-ethylcyclopropyl)-1,3,4-thiadiazole]"
14,9.57,"CCc1c(-c2nnc(C(C)(C)C)s2)nn(-c2ccc(Cl)cc2Cl)c1-c1ccc(Br)cc1 [Example 377, 2-(5-(4-Bromophenyl)-1-(2,4-dichlorophenyl)-4-ethyl-1H-pyrazol-3-yl)-5-tert-butyl-1,3,4-thiadiazole]"
15,6.49,"CCc1c(-c2nnc(C3(c4ccc(Cl)cc4Cl)CC3)s2)nn(-c2ccc(Cl)cc2Cl)c1-c1ccc(Br)cc1 [Example 478, 2-(5-(4-bromophenyl)-1-(2,4-dichlorophenyl)-4-ethyl-1H-pyrazol-3-yl)-5-(1-(2,4-dichlorophenyl)cyclopropyl)-1,3,4-thiadiazole]"
16,20.6,"C=Cc1c(-c2nnc(C(C)(C)C)s2)nn(-c2ccc(Cl)cc2Cl)c1-c1ccc(Br)cc1 [Example 531, 2-(5-(4-bromophenyl)-1-(2,4-dichlorophenyl)-4-vinyl-1H-pyrazol-3-yl)-5-tert-butyl-1,3,4-thiadiazole]"
17,11,"Clc1ccc(-c2c(C3CC3)c(-c3nnc(C4CCCCC4)s3)nn2-c2ccc(Cl)cc2Cl)cc1 [Example 440, 2-(5-(4-chlorophenyl)-4-cyclopropyl-1-(2,4-dichlorophenyl)-1H-pyrazol-3-yl)-5-cyclohexyl-1,3,4-thiadiazole]"
18,5.34,"Cc1c(-c2nnc(C(C)(C)c3ccc(Cl)cc3)s2)nn(-c2ccc(Cl)cc2Cl)c1-c1ccc(Cl)cc1 [Example 402, 2-(5-(4-chlorophenyl)-1-(2,4-dichlorophenyl)-4-methyl-1H-pyrazol-3-yl)-5-(2-(4-chlorophenyl)propan-2-yl)-1,3,4-thiadiazole]"
19,20.1,"Cc1ccc(C2(c3nnc(-c4nn(-c5ccc(Cl)cc5Cl)c(-c5ccc(Cl)cc5)c4C)s3)CC2)cc1 [Example 460, 2-(5-(4-chlorophenyl)-1-(2,4-dichlorophenyl)-4-methyl-1H-pyrazol-3-yl)-5-(1-p-tolylcyclopropyl)-1,3,4-thiadiazole]"
